How the values were obtained:
Mus musculus [1] = assay: Acute toxicity in po dosed CD-1 mouse assessed as mortality after 24 hrs; format: organism-based; conditions: in vivo
Mus musculus [2] = assay: Potentiation of chlorprothixene-induced sedative effect in po dosed CD-1 mouse assessed as loss of righting reflex; format: functional; conditions: CD-1, po
Mus musculus [3] = assay: Anticonvulsant activity in po dosed CD-1 mouse assessed as protection against maximal electroshock-induced convulsion; format: functional; conditions: CD-1, po
Mus musculus [4] = assay: Potentiation of hexobarbital-induced sedative effect in po dosed CD-1 mouse assessed as loss of righting reflex after 30 secs; format: functional; conditions: CD-1, po
Mus musculus [5] = assay: Antianxiety activity in po dosed CD-1 mouse assessed as inhibition of foot shock-induced aggression after 30 mins relative to control; format: functional; conditions: CD-1, po, 0.5 h
Mus musculus [6] = assay: Anticonvulsant activity in po dosed CD-1 mouse assessed as protection against strychnine-induced convulsion after 30 mins; format: functional; conditions: CD-1, po, 0.5 h
Mus musculus [7] = assay: Induction of muscle relaxation in po dosed CD-1 mouse after 30 mins by rotary drum test; format: functional; conditions: CD-1, po, 0.5 h
Mus musculus [8] = assay: Anticonvulsant activity in po dosed CD-1 mouse assessed as protection against pentylenetetrazole-induced convulsion; format: functional; conditions: CD-1, po

| Compound | ED50 (Mus musculus [1]) | ED50 (Mus musculus [2]) | ED50 (Mus musculus [3]) | ED50 (Mus musculus [4]) | ED50 (Mus musculus [5]) | ED50 (Mus musculus [6]) | ED50 (Mus musculus [7]) | ED50 (Mus musculus [8]) |
| --- | --- | --- | --- | --- | --- | --- | --- | --- |
| CN1CCN(/C=C2\N=C3CN=C(c4ccccc4Cl)c4cc([N+](=O)[O-])ccc4N3C2=O)CC1 [LOPRAZOLAM] | > 1000 mg/kg | 1.1 mg/kg | 0.76 mg/kg | 1 mg/kg | 0.42 mg/kg | 0.41 mg/kg | 2.2 mg/kg | 0.028 mg/kg |
| CCN/C=C1\N=C2CN=C(c3ccccc3Cl)c3cc(Cl)ccc3N2C1=O | > 1000 mg/kg | 9.6 mg/kg | 18 mg/kg | 0.27 mg/kg | 1 mg/kg | 25 mg/kg | 11.5 mg/kg | 0.39 mg/kg |
| CCCCN/C=C1\N=C2CN=C(c3ccccc3)c3cc(Cl)ccc3N2C1=O | > 1000 mg/kg | 1.8 mg/kg | 12.5 mg/kg | 0.66 mg/kg | 3.35 mg/kg | 17 mg/kg | 24 mg/kg | 1.15 mg/kg |
| O=C1/C(=C/N2CCSCC2)N=C2CN=C(c3ccccc3)c3cc(Cl)ccc3N12 | > 1000 mg/kg | > 50 mg/kg | > 50 mg/kg | > 50 mg/kg | > 20 mg/kg | > 50 mg/kg | > 50 mg/kg | > 50 mg/kg |
| CN(C)/C=C1\N=C2CN=C(c3ccccc3)c3cc(Cl)ccc3N2C1=O | > 1000 mg/kg | > 50 mg/kg | 42 mg/kg | > 50 mg/kg | 14 mg/kg | > 50 mg/kg | > 50 mg/kg | 5 mg/kg |
| CCN1CCN(/C=C2\N=C3CN=C(c4ccccc4F)c4cc([N+](=O)[O-])ccc4N3C2=O)CC1 | > 1000 mg/kg | 4 mg/kg | 2.6 mg/kg | 0.72 mg/kg | 0.64 mg/kg | 3.75 mg/kg | 0.37 mg/kg | 0.18 mg/kg |
| CCN1CCN(/C=C2\N=C3CN=C(c4ccccc4F)c4cc(Cl)ccc4N3C2=O)CC1 | > 1000 mg/kg | 2.35 mg/kg | 1.55 mg/kg | 2.8 mg/kg | 0.48 mg/kg | 1.6 mg/kg | 0.7 mg/kg | 0.155 mg/kg |
| CCN(CC)CCN/C=C1\N=C2CN=C(c3ccccc3)c3cc(Cl)ccc3N2C1=O | > 1000 mg/kg | > 50 mg/kg | > 50 mg/kg | > 50 mg/kg | > 20 mg/kg | > 50 mg/kg | > 50 mg/kg | 16 mg/kg |
| CCCN1CCN(/C=C2\N=C3CN=C(c4ccccc4)c4cc(Cl)ccc4N3C2=O)CC1 | > 1000 mg/kg | 3.2 mg/kg | 2.7 mg/kg | 3.6 mg/kg | 1.3 mg/kg | 6.4 mg/kg | 1.1 mg/kg | 1 mg/kg |
| CCN/C=C1\N=C2CN=C(c3ccccc3)c3cc(Cl)ccc3N2C1=O | > 1000 mg/kg | > 10 mg/kg | 10 mg/kg | 7.2 mg/kg | 1.45 mg/kg | > 50 mg/kg | 1.8 mg/kg | 4 mg/kg |
| O=C1/C(=C/N2CCN(c3ccccc3)CC2)N=C2CN=C(c3ccccc3)c3cc(Cl)ccc3N12 | > 1000 mg/kg | > 50 mg/kg | > 50 mg/kg | > 50 mg/kg | > 50 mg/kg | > 50 mg/kg | > 50 mg/kg | 26 mg/kg |
| CCCN/C=C1\NC2CN=C(c3ccccc3)c3cc(Cl)ccc3N2C1=O (stereo unspecified) | > 1000 mg/kg | 2.6 mg/kg | 4 mg/kg | 3.9 mg/kg | 0.92 mg/kg | > 50 mg/kg | 2.8 mg/kg | 1.55 mg/kg |
